Data: US20250354979A1, “DRUG EVALUATION METHOD, REAGENT, AND KIT” (FUJIFILM Corporation, priority 2023, published 2025)

Tests used:
[1] = system: human iPS cell-derived myocardial cells; assay: Heart rate of myocardial cells by MEA, serum-free culture medium with isoproterenol and carbachol added; format: cell-based; settings: serum-free culture medium with 1 μmol/L isoproterenol and 3 μmol/L carbachol; cumulative drug concentrations, 20 minutes after addition; vs medium control
Protocol: (§1) Example 4: Method and results of evaluating increase in heart rate by muscarinic receptor inhibitor (atropine) using serum-free culture medium to which adrenergic receptor agonist (isoproterenol) and muscarinic receptor agonist (carbachol) are added Human iPS cell-derived myocardial cells (iCell myocardial cells 2.0, manufactured by FUJIFILM Cellular Dynamics, Inc.) in a frozen state were thawed, suspended in a thawing culture medium (iCell myocardial cell thawing culture medium, manufactured by FUJIFILM Cellular Dynamics, Inc.), and then seeded at a cell density of 50,000 cells per well on a MEA plate (Cyto View MEA 48, manufactured by Axion BioSystems, Inc.). The seeding density of myocardial cells in the vicinity of the electrode was 2,725 cells/mm^2. After the plate was allowed to stand in a CO2 incubator for several hours, a maintenance culture medium (iCell myocardial cell maintenance culture medium, manufactured by FUJIFILM Cellular Dynamics, Inc.) containing serum was added, and the myocardial cells were cultured in the CO2 incubator for about one week. The culture medium was exchanged with a serum-free culture medium (a myocardial cell serum-free assay culture medium, manufactured by FUJIFILM Cellular Dynamics, Inc.) on the day before the measurement.
(§2) On the day of measurement, the MEA plate on which human iPS cell-derived myocardial cells were cultured was placed in an MEA system (Maestro Pro, manufactured by Axion BioSystems, Inc.), 1 μmol/L of isoproterenol (manufactured by Tokyo Chemical Industry Co., Ltd.) and 3 μmol/L of carbachol (manufactured by Tokyo Chemical Industry Co., Ltd.) were added to the culture medium, and then the extracellular potential was measured after 20 minutes from the addition (medium control, atropine concentration: 0 μmol/L). Subsequently, 0.01 μmol/L of atropine (manufactured by Tokyo Chemical Industry Co., Ltd.) was added to the MEA plate, and then the extracellular potential was measured after 20 minutes from the addition. Similarly, atropine was added to give concentrations of 0.1 μmol/L and 1 μmol/L, and then the extracellular potential was measured at each concentration.
From the measurement results of the extracellular potential, the interval between sharp peaks indicating depolarization of human iPS cell-derived myocardial cells was taken as the beating time (sec), and the heart rate (/min)=60/beating time (sec) was calculated. The addition of atropine was confirmed to result in an increase in heart rate of up to 51% (FIG. 7).
In the same manner as in Example 4, evaluation was carried out using an MEA plate on which human iPS cell-derived myocardial cells were cultured. Specifically, the same operations as in Example 4 were carried out except that atropine added in Example 4 was changed to tiotropium (manufactured by Tokyo Chemical Industry Co., Ltd.) and the concentration of tiotropium added was 1 pmol/L, 10 pmol/L, 100 pmol/L, and 1,000 pmol/L.
In the same manner as in Example 4, evaluation was carried out using an MEA plate on which human iPS cell-derived myocardial cells were cultured. Specifically, the same operations as in Example 4 were carried out except that atropine added in Example 4 was changed to glycopyrronium (manufactured by Tokyo Chemical Industry Co., Ltd.) and the concentration of glycopyrronium added was 0.01 nmol/L, 0.1 nmol/L, 1 nmol/L, and 10 nmol/L.
In the same manner as in Example 4, evaluation was carried out using an MEA plate on which human iPS cell-derived myocardial cells were cultured. Specifically, the same operations as in Example 4 were carried out except that the atropine added in Example 4 was changed to propranolol (manufactured by FUJIFILM Wako Pure Chemical Corporation) and the concentration of propranolol added was 0.1 nmol/L, 1 nmol/L, 10 nmol/L, and 100 nmol/L.
In the same manner as in Example 4, evaluation was carried out using an MEA plate on which human iPS cell-derived myocardial cells were cultured. […]

[2] = system: human iPS cell-derived myocardial cells; assay: Heart rate of myocardial cells by MEA, serum-free culture medium with isoproterenol added; format: cell-based; settings: serum-free culture medium with 1 μmol/L isoproterenol; cumulative drug concentrations, 20 minutes after addition; vs medium control
Protocol: as §1, with “1:” for “4:”, “decrease” for “increase”, “agonist (carbachol)” for “inhibitor (atropine)”, “is” for “and muscarinic receptor agonist (carbachol) are”, “2,671” for “2,725”, “The culture medium was exchanged with a serum-free culture medium (a myocardial cell serum-free assay culture medium, manufactured by FUJIFILM Cellular Dynamics, Inc.) on the day before the measurement.” left out
as §2, with “Ltd.) was” for “Ltd.) and 3 μmol/L of carbachol (manufactured by Tokyo Chemical Industry Co., Ltd.) were”, “control, carbachol” for “control, atropine”, “of carbachol” for “of atropine”, “Similarly, carbachol” for “Similarly, atropine”, “0.1 μmol/L, 1 μmol/L,” for “0.1 μmol/L”, “and 10” for “and 1”
From the measurement results of the extracellular potential, the interval between sharp peaks indicating depolarization of human iPS cell-derived myocardial cells was taken as the beating time (sec), and the heart rate (/min)=60/ beating time (sec) was calculated. […]

Q: With `CN1[C@@H]2CC[C@H]1C[C@@H](OC(=O)C(CO)c1ccccc1)C2` (some centres unmarked) [atropine] as the compound, how does the “increase in heart rate” value [1] read?
A: up to 51%

Q: How did the “decrease in heart rate” value [2] turn out when `C[N+](C)(C)CCOC(N)=O` [carbachol] was run?
A: up to 34%
